{"source": "patent US4939138A", "about": "“2- and 3-aminomethyl-6-arylcarbonyl-2,3-dihydropyrrolo(1,2,3-DE)-1,4-benzoxazin es” (Sterling Drug Inc., priority 1989, dated 1990)", "key": {"[1]": {"test_system": "acetylcholine-induced abdominal constriction", "assay": "acetylcholine-induced abdominal constriction test (ACH)", "format": "in vivo, mice", "settings": "for ED50: Mus musculus", "excerpt": "(§1) The test procedures used to determine the analgesic activities of the compounds have been described in detail in the prior art and are as follows: The acetylcholine-induced abdominal constriction test, which is a primary analgesic screening test designed to measure the ability of a test agent to suppress acetylcholine-induced abdominal constriction in mice, described by Collier et al., Brit. J. Pharmacol. Chemotherap. 32, 295 (1968); a modification of the anti-bradykinin test, which is also a primary analgesic screening procedure, described by Berkowitz et al., J. Pharmacol. Exptl Therap. 177, 500-508 (1971), Blane et al., J. Pharm. Pharmacol 19, 367-373 (1967), Botha et al., Eur. J. Pharmacol. 6, 312-321 (1969) and Deffenu et al., J. Pharm. Pharmacol. 18, 135 (1966); the rat paw flexion test, described by Kuzuna et al., Chem. Pharm. Bull., 23, 1184-1191 (1975), Winter et al., J. Pharm. Exptl. Therap., 211, 678-685 (1979) and Capetola et al., J. Pharm. Exptl. Therap. 214, 16-23 (1980); and the mouse vas deferens adrenergic transmission test, described by Henderson et al., Brit. J. Pharmacol., 46, 764-766 (1972).\n(§2) In the acetylcholine-induced abdominal constriction test, the test compounds were administered either as suspensions in gum tragacanth (GT) or as aqueous solutions prepared by addition of just sufficient dilute aqueous methanesulfonic acid (MS) or dilute aqueous lactic acid (LA) to dissolve the compound The compounds are identified by the example number above where their preparations are described All data in the anti-bradykinin, rat writhing and Randall-Selitto tests were obtained on oral administration."}, "[2]": {"test_system": "bradykinin", "assay": "anti-bradykinin test (BDK/BRKD)", "format": "in vivo", "settings": "oral", "excerpt": "as §1, with “(1972). […]” for “(1972).”"}, "[3]": {"test_system": "acetic acid-induced writhing", "assay": "inhibition of acetic acid-induced writhing in the rat (RW)", "format": "in vivo, rat (male Sprague Dawley)", "settings": "Rattus norvegicus; oral", "protocol": "(§3) In order to further detail the analgesic profiles of the compounds of the invention, their activities in the inhibition of acetic acid-induced writhing assay in the rat, the inhibition of cyclooxygenase assay and a modification of the Randall-Selitto analgesic test were also determined The test procedure used to determine the inhibition of acetic acid-inducedwrithing in the rat is described as follows.\nMale Sprague Dawley rats (Taconic Farms) weighing between 160 and 200g were treated in a random and blind fashion with 1% gum tragacanth vehicle or test agent suspended or dissolved in 1% gum tragacanth. Rats were individually housed in plastic cages (28×18×12 cm) throughout the experiment. Forty-five minutes after drug treatment, 0.5 ml of 9% (w/v) acetic acid was administered intraperitoneally, and animals were returned to their cages for 10 minutes. Writhing is not normally seen during this 10 minute period. Each animal was then observed for a writhing response during a subsequent 10 minute interval (55-65 minutes post-drug treatment). A writhing response was defined as arching of the back with extension of the hindlimbs and contraction of abdominal muscles. […] Data were expressed as percent inhibition of the mean number of writhes in the vehicle treated control group. Data were evaluated for statistical significance by Dunnett's test, and ED50 's for inhibition of acetic acid-induced writhing were determined by the graded dose-response analysis of Tallarida and Murray, Manual of Pharmacologic Calculations with Computer Programs, Springer Verlag, New York (1981).\nas §2"}, "[4]": {"test_system": "cyclooxygenase", "assay": "inhibition of cyclooxygenase assay (CO)", "format": "biochemical, mice", "settings": "30 μM; negative values = increases over controls, not demonstrated to differ significantly", "protocol": "as §3\nThe test procedure used to determine cyclooxygenase inhibitory activity is described as follows.\nMale mice were decapitated and stomach and brain (cerebral cortex, hypothalamus and medulla) were rapidly dissected over ice. The brains were homogenized in 3 volumes of ice cold 0.1 M potassium phosphate buffer, pH 7.4 containing 10 mM EDTA and 1% BSA (w/v). The homogenate was centrifuged at 10,000 xg for 15 minutes. The resulting supernatant was decanted and centrifuged at 100,000 xg for 60 minutes yielding a crude microsomal pellet. The pellet was washed superficially three times in 3 volumes of 0.1 M potassium phosphate buffer before final resuspension in 1.5 volumes of 0.1 M potassium phosphate buffer containing 1 mM norepinephrine and 1 mM reduced glutathione. The microsomes (50 μl) were preincubated with 50 μl of indomethacin (0.3 μM), test compound or norepinephrine/glutathione-containing buffer for 5 minutes at room temperature. The enzyme reaction was initiated by the addition of 50 μl of ^14 C arachidonic acid to yield a final concentration of 10 μM. After a further incubation of 15 minutes at 37° C., the reaction was stopped by the addition of 50 μl of 4M formic acid. Blank values were determined by using microsomes boiled for 5 minutes but otherwise were treated similarly. The ^14 C-labelled material was extracted 3 times with 0.5 ml of ethyl acetate with intermediate centrifugations at 500 xg for 5 minutes to clarify the aqueous and organic phases. This procedure extracted >95% of the ^14 C-labelled materials. The ethyl acetate washes were added to tubes containing 5 μg each of PGE2, PGF2, PGD2, and 10 μg PGI2 in 25 μl of ethanol. The mixture was evaporated to dryness under nitrogen and the residue dissolved in 150 μl of chloroform:methanol (2:1). This solution was spotted on 5×20 cm silica gel plates and chromatographed with an ethyl acetate, trimethylpentane, acetic acid and water mixture (110:50:20:100 by volume) prepared by shaking the solvents and separating and discarding the organic phase. The prostaglandins were visualized in iodine vapor, the various spots were scraped, and the ^14 C-labelled prostaglandins quantitated by liquid scintillation spectroscopy in 10 ml of BIOFLUOR® or FLUORODYNE®.\nas §2"}, "[5]": {"test_system": "brewers' yeast-induced hyperalgesia", "assay": "modification of the Randall-Selitto analgesic (paw pressure) test (R-S)", "format": "in vivo, rat (Sprague-Dawley)", "settings": "Rattus norvegicus; oral; read-out: R-S minimum effective dose, MED", "protocol": "as §3\nThe modification of the Randall-Selitto analgesic test procedure used is described as follows:\nFemale Sprague-Dawley rats, weighing 60 to 95 grams, were routinely used. […] The rats were housed 10 per cage with food and water available ad libitum.\nThe Randall-Selitto Test device used was a UGO Basile Analgesy Meter (catalog no. 7200), with the flat-topped plinth on the bottom, acting as a platform upon which the hind paw of the rat was placed and the round-pointed pusher oriented downward. […]\nAnimals were given the test drug, p.o., two hours after the sub-plantar injection, four doses customarily being given, along with vehicle control and a positive control (Zomepirac). […] Treatments were assigned in such a way that both the range and the means of the baseline readings were as nearly equal as possible for all treatments. […]\nResults were analyzed with the Student's t-test. […]"}}, "data": [{"smiles": "Cc1c(C(=O)c2cccc3ccccc23)c2cccc3c2n1C(CN1CCOCC1)CO3", "note": "(centres unmarked) [Example 1B, 3-(4-morpholinylmethyl)-5-methyl-6-(1-naphthylcarbonyl)-2,3-dihydropyrrolo1,2,3-de]-1,4-benzoxazine methanesulfonate]", "values": [{"measurement": "ED50", "setting": "[1]; iv", "result": 0.25, "unit": "mg/kg"}, {"measurement": "ED50", "setting": "[1]; po, aqueous methanesulfonic acid (MS)", "result": 33, "unit": "mg/kg"}, {"measurement": "ACH percent inhibition", "setting": "[1]; p.o., dose level 100, suspension in gum tragacanth (GT)", "result": 30, "unit": "%"}, {"measurement": "ACH percent inhibition", "setting": "[1]; s.c., dose level 100", "result": 73, "unit": "%"}, {"measurement": "ED50", "setting": "[2]", "result": 35, "unit": "mg/kg"}, {"measurement": "ED50", "setting": "[3]", "result": 8.6, "unit": "mg/kg"}, {"measurement": "CO percent inhibition (% I)", "setting": "[4]", "result": -35, "unit": "%"}, {"measurement": "minimal effective dose", "setting": "[5]", "result": 0.003, "unit": "mg/kg"}]}]}
